From patent US20240059671A1, “TYROSINE KINASE 2 (TYK2) DEGRADATION COMPOUNDS AND METHODS OF USE” (CULLGEN (SHANGHAI), INC., priority 2020, published 2024)

Biological target: TYK2 (Homo sapiens, UniProt P29597)
Assay: TYK2 protein degradation in MOLT-4 cells by immunoblotting
Format: cell-based
Design: endogenous in cells; host or cells: MOLT-4
Conditions: MOLT-4 cells, 0.5 μM, 24 hours
Description: MOLT-4 cells were treated with compounds at 0.5 and 5 μM concentrations for 24 hours.
MOLT-4 cells were treated with CPD-038, CPD-039, and CPD-040 at 0.04, 0.2, 1, and 5 μM concentrations for 24 hours.
MOLT-4 or NOMO-1 cells were cultured at 37° C. with 5% CO2 in RPMI 1640 Medium supplemented with 10% fetal bovine serum. Cells were authenticated using the short tandem repeat (STR) assays. Mycoplasma test results were negative.
Cultured cells were washed with cold PBS once and lysed in cold RIPA buffer supplemented with protease inhibitors and phosphatase inhibitors (Beyotime Biotechnology). The solutions were then incubated at 4° C. for 30 minutes with gentle agitation to fully lyse cells. Cell lysates were centrifuged at 13,000 rpm for 10 minutes at 4° C. and pellets were discarded. Total protein concentrations in the lysates were determined by BCA assays (Beyotime Biotechnology). Cell lysates were mixed with Laemmli loading buffer to 1× and heated at 99° C. for 5 min. Proteins were resolved on SDS-PAGE and visualized by chemiluminescence. Images were taken by a ChemiDoc MP Imaging system (Bio-Rad). Protein bands were quantitated using the accompanied software provided by Bio-Rad.
The percentage of TYK2 protein degradation of each compound at 0.5 and 5 μM determined in MOLT-4 cells as described in Methods.

Sequence of TYK2 (P29597 whole entry): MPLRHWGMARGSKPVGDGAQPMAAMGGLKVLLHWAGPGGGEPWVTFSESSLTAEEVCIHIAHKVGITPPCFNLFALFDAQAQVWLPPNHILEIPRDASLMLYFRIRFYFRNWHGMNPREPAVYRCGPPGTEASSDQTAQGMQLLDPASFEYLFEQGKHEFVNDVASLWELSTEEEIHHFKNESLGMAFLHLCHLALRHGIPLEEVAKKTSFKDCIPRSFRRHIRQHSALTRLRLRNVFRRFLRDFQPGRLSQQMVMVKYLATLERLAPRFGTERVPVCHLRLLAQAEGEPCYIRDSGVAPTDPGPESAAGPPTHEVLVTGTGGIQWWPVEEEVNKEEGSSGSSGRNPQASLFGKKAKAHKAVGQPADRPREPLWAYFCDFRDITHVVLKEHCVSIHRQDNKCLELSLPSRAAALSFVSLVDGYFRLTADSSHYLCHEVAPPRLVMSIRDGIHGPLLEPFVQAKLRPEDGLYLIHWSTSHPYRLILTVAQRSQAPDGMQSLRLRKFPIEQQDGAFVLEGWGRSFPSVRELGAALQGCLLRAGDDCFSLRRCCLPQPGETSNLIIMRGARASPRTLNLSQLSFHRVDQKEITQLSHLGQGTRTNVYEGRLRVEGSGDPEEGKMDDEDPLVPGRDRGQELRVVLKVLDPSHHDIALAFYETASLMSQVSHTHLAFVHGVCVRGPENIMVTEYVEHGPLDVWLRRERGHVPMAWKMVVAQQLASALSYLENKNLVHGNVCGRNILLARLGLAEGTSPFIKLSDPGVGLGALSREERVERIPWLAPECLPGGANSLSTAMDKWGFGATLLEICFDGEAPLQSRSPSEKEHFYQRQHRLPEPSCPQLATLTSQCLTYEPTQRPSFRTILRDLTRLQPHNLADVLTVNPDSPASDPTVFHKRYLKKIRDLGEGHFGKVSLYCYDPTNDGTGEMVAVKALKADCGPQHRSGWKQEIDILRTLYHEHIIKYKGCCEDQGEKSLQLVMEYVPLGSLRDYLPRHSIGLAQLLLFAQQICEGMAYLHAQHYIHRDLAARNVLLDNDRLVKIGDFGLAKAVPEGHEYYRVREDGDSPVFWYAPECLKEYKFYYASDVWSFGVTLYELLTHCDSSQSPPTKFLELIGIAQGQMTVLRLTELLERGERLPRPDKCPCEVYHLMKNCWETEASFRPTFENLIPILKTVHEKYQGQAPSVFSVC

SMILES	TYK2 Degradation (0.5 μM) [%]
CNC(=O)c1nnc(NC(=O)C2CC2)cc1Nc1cccc(-c2ncn(CCNC(=O)CNc3cccc4c3C(=O)N(C3CCC(=O)NC3=O)C4=O)n2)c1OC (stereo not shown) [CPD-001, 6-(Cyclopropanecarboxamido)-4-((3-(1-(2-(2-((2-(2,6-dioxopiperidin-3-yl)-1,3-dioxoisoindolin-4-yl)amino)acetamido)ethyl)-1H-1,2,4-triazol-3-yl)-2-methoxyphenyl)amino)-N-methylpyridazine-3-carboxamide]	≤20
CNC(=O)c1nnc(NC(=O)C2CC2)cc1Nc1cccc(-c2ncn(CCNC(=O)CCNc3cccc4c3C(=O)N(C3CCC(=O)NC3=O)C4=O)n2)c1OC (stereo not shown) [CPD-002, 6-(Cyclopropanecarboxamido)-4-((3-(1-(2-(3-((2-(2,6-dioxopiperidin-3-yl)-1,3-dioxoisoindolin-4-yl)amino)propanamido)ethyl)-1H-1,2,4-triazol-3-yl)-2-methoxyphenyl)amino)-N-methylpyridazine-3-carboxamide]	≤20
CNC(=O)c1nnc(NC(=O)C2CC2)cc1Nc1cccc(-c2ncn(CCNC(=O)CCCNc3cccc4c3C(=O)N(C3CCC(=O)NC3=O)C4=O)n2)c1OC (stereo not shown) [CPD-003, 6-(Cyclopropanecarboxamido)-4-((3-(1-(2-(4-((2-(2,6-dioxopiperidin-3-yl)-1,3-dioxoisoindolin-4-yl)amino)butanamido)ethyl)-1H-1,2,4-triazol-3-yl)-2-methoxyphenyl)amino)-N-methylpyridazine-3-carboxamide]	≤20
CNC(=O)c1nnc(NC(=O)C2CC2)cc1Nc1cccc(-c2ncn(CCNC(=O)CCCCNc3cccc4c3C(=O)N(C3CCC(=O)NC3=O)C4=O)n2)c1OC (stereo not shown) [CPD-004, 6-(Cyclopropanecarboxamido)-4-((3-(1-(2-(5-((2-(2,6-dioxopiperidin-3-yl)-1,3-dioxoisoindolin-4-yl)amino)pentanamido)ethyl)-1H-1,2,4-triazol-3-yl)-2-methoxyphenyl)amino)-N-methylpyridazine-3-carboxamide]	≤20
CNC(=O)c1nnc(NC(=O)C2CC2)cc1Nc1cccc(-c2ncn(CCNC(=O)CCCCCNc3cccc4c3C(=O)N(C3CCC(=O)NC3=O)C4=O)n2)c1OC (stereo not shown) [CPD-005, 6-(Cyclopropanecarboxamido)-4-((3-(1-(2-(6-((2-(2,6-dioxopiperidin-3-yl)-1,3-dioxoisoindolin-4-yl)amino)hexanamido)ethyl)-1H-1,2,4-triazol-3-yl)-2-methoxyphenyl)amino)-N-methylpyridazine-3-carboxamide]	≤20
CNC(=O)c1nnc(NC(=O)C2CC2)cc1Nc1cccc(-c2ncn(CCNC(=O)CCCCCCNc3cccc4c3C(=O)N(C3CCC(=O)NC3=O)C4=O)n2)c1OC (stereo not shown) [CPD-006, 6-(Cyclopropanecarboxamido)-4-((3-(1-(2-(7-((2-(2,6-dioxopiperidin-3-yl)-1,3-dioxoisoindolin-4-yl)amino)heptanamido)ethyl)-1H-1,2,4-triazol-3-yl)-2-methoxyphenyl)amino)-N-methylpyridazine-3-carboxamide]	≤20
CNC(=O)c1nnc(NC(=O)C2CC2)cc1Nc1cccc(-c2ncn(CCNC(=O)CCCCCCCNc3cccc4c3C(=O)N(C3CCC(=O)NC3=O)C4=O)n2)c1OC (stereo not shown) [CPD-007, 6-(Cyclopropanecarboxamido)-4-((3-(1-(2-(8-((2-(2,6-dioxopiperidin-3-yl)-1,3-dioxoisoindolin-4-yl)amino)octanamido)ethyl)-1H-1,2,4-triazol-3-yl)-2-methoxyphenyl)amino)-N-methylpyridazine-3-carboxamide]	≤20
CNC(=O)c1nnc(NC(=O)C2CC2)cc1Nc1cccc(-c2ncn(CCNC(=O)CCOCCNc3cccc4c3C(=O)N(C3CCC(=O)NC3=O)C4=O)n2)c1OC (stereo not shown) [CPD-008, 6-(Cyclopropanecarboxamido)-4-((3-(1-(2-(3-(2-((2-(2,6-dioxopiperidin-3-yl)-1,3-dioxoisoindolin-4-yl)amino)ethoxy)propanamido)ethyl)-1H-1,2,4-triazol-3-yl)-2-methoxyphenyl)amino)-N-methylpyridazine-3-carboxamide]	≤20
CNC(=O)c1nnc(NC(=O)C2CC2)cc1Nc1cccc(-c2ncn(CCNC(=O)CCOCCOCCNc3cccc4c3C(=O)N(C3CCC(=O)NC3=O)C4=O)n2)c1OC (stereo not shown) [CPD-009, 6-(Cyclopropanecarboxamido)-4-((3-(1-(2-(3-(2-(2-((2-(2,6-dioxopiperidin-3-yl)-1,3-dioxoisoindolin-4-yl)amino)ethoxy)ethoxy)propanamido)ethyl)-1H-1,2,4-triazol-3-yl)-2-methoxyphenyl)amino)-N-methylpyridazine-3-carboxamide]	≤20
CNC(=O)c1nnc(NC(=O)C2CC2)cc1Nc1cccc(-c2ncn(CCNC(=O)CCOCCOCCOCCNc3cccc4c3C(=O)N(C3CCC(=O)NC3=O)C4=O)n2)c1OC (stereo not shown) [CPD-010, 6-(Cyclopropanecarboxamido)-4-((3-(1-(1-((2-(2,6-dioxopiperidin-3-yl)-1,3-dioxoisoindolin-4-yl)amino)-12-oxo-3,6,9-trioxa-13-azapentadecan-15-yl)-1H-1,2,4-triazol-3-yl)-2-methoxyphenyl)amino)-N-methylpyridazine-3-carboxamide]	≤20
CNC(=O)c1nnc(NC(=O)C2CC2)cc1Nc1cccc(-c2ncn(CCNC(=O)CCOCCOCCOCCOCCNc3cccc4c3C(=O)N(C3CCC(=O)NC3=O)C4=O)n2)c1OC (stereo not shown) [CPD-011, 6-(Cyclopropanecarboxamido)-4-((3-(1-(1-((2-(2,6-dioxopiperidin-3-yl)-1,3-dioxoisoindolin-4-yl)amino)-15-oxo-3,6,9,12-tetraoxa-16-azaoctadecan-18-yl)-1H-1,2,4-triazol-3-yl)-2-methoxyphenyl)amino)-N-methylpyridazine-3-carboxamide]	≤20
CNC(=O)c1nnc(NC(=O)C2CC2)cc1Nc1cccc(-c2ncn(CCNC(=O)CCOCCOCCOCCOCCOCCNc3cccc4c3C(=O)N(C3CCC(=O)NC3=O)C4=O)n2)c1OC (stereo not shown) [CPD-012, 6-(Cyclopropanecarboxamido)-4-((3-(1-(1-((2-(2,6-dioxopiperidin-3-yl)-1,3-dioxoisoindolin-4-yl)amino)-18-oxo-3,6,9,12,15-pentaoxa-19-azahenicosan-2l-yl)-1H-1,2,4-triazol-3-yl)-2-methoxyphenyl)amino)-N-methylpyridazine-3-carboxamide]	≤20
CNC(=O)c1nnc(NC(=O)C2CC2)cc1Nc1cccc(-c2ncn(CCNC(=O)CNc3ccc4c(c3)C(=O)N(C3CCC(=O)NC3=O)C4=O)n2)c1OC (stereo not shown) [CPD-013, 6-(Cyclopropanecarboxamido)-4-((3-(1-(2-(2-((2-(2,6-dioxopiperidin-3-yl)-1,3-dioxoisoindolin-5-yl)amino)acetamido)ethyl)-1H-1,2,4-triazol-3-yl)-2-methoxyphenyl)amino)-N-methylpyridazine-3-carboxamide]	≤20
